{
  "source": "paper PMC8619641",
  "about": "“The Antileukemic Effect of Xestoquinone, A Marine-Derived Polycyclic Quinone-Type Metabolite, Is Mediated through ROS-Induced Inhibition of HSP-90” (Molecules, 2021)",
  "target": "T1, topo IIα (Topo II) (Homo sapiens, UniProt P11388)",
  "T1 construct": "gene TOP2A",
  "T1 sequence (P11388 whole entry)": "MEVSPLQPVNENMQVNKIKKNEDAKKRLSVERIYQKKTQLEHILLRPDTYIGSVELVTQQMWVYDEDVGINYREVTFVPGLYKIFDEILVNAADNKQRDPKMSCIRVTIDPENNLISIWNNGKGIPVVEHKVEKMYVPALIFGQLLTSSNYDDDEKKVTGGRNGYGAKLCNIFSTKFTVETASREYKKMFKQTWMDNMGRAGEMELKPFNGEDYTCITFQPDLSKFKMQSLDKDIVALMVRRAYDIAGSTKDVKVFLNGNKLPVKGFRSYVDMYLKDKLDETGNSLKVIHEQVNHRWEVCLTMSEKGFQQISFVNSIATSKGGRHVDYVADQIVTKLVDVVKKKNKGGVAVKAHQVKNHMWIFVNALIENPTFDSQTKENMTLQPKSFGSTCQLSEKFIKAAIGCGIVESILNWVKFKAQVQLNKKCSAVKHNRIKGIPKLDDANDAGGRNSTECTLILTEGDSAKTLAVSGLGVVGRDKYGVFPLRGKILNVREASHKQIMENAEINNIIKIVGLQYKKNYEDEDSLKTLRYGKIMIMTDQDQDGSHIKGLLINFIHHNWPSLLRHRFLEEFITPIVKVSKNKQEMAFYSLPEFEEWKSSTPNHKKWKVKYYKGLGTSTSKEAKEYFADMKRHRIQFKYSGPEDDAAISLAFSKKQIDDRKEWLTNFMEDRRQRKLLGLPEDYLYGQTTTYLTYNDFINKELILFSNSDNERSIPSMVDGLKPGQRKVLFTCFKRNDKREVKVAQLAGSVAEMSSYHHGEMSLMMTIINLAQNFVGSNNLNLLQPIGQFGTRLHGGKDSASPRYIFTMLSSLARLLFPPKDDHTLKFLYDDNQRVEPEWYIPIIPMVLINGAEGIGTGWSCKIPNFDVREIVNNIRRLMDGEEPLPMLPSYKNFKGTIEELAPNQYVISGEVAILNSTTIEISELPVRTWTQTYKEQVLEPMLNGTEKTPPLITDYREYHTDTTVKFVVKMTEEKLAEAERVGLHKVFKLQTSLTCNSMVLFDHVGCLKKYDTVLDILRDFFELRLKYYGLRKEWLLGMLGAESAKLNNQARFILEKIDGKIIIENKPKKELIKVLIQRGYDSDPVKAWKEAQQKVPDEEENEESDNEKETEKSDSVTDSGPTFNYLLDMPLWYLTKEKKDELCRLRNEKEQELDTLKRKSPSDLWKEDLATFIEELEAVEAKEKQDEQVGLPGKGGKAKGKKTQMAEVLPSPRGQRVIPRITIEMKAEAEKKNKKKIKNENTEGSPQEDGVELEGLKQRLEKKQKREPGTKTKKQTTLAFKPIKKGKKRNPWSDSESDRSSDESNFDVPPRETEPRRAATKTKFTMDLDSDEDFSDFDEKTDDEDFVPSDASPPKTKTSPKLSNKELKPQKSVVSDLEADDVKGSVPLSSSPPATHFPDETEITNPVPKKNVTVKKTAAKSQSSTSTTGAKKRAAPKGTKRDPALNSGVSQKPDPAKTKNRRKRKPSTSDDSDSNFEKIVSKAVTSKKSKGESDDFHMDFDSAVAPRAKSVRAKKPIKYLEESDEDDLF",
  "experiment": "cell-free supercoiled pHOT1 plasmid DNA relaxation assay",
  "format": "biochemical",
  "data": [
    {"smiles": "C[C@@]12CCCc3coc(c31)C(=O)c1cc3c(cc12)C(=O)C=CC3=O", "note": "[XQ, xestoquinone]", "values": [
      {"measurement": "IC50", "result": 0.094, "unit": "µM"}
    ]}
  ]
}
